According to the supplement of paper PMC10307832:

Assays:
Experiment in all cases: relative viability (nuclei count vs DMSO), 5 days (fraction); higher = more cells survive
Everolimus + Bortezomib = compound: CO[C@H]1C[C@@H]2CC[C@@H](C)[C@@](O)(O2)C(=O)C(=O)N2CCCC[C@H]2C(=O)O[C@H]([C@H](C)C[C@@H]2CC[C@@H](OCCO)[C@H](OC)C2)CC(=O)[C@H](C)/C=C(\C)[C@@H](O)[C@@H](OC)C(=O)[C@H](C)C[C@H](C)/C=C/C=C/C=C/1C [Everolimus] + CC(C)C[C@H](NC(=O)[C@H](Cc1ccccc1)NC(=O)c1cnccn1)B(O)O [Bortezomib] (partner 0.002 µM)
Procedure, shortened: (§1)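 Lung cancer cell lines were seeded in 1536-well plates and dosed by pin tool the next day, with either a single drug or a fixed anchor-drug dose combined with five library-drug doses (not always all listed) spaced in √10 steps. Five days later, one step fixed the cells and stained their nuclei (final 0.05% Triton X-100, 1% formaldehyde, 1 ug/ml Hoechst), and nuclei were counted on 4× images. Relative viability is the nuclei count in treated wells divided by the count in vehicle wells, and each value is the median of duplicate plates.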

Everolimus + Luminespib = compound: CO[C@H]1C[C@@H]2CC[C@@H](C)[C@@](O)(O2)C(=O)C(=O)N2CCCC[C@H]2C(=O)O[C@H]([C@H](C)C[C@@H]2CC[C@@H](OCCO)[C@H](OC)C2)CC(=O)[C@H](C)/C=C(\C)[C@@H](O)[C@@H](OC)C(=O)[C@H](C)C[C@H](C)/C=C/C=C/C=C/1C [Everolimus] + CCNC(=O)c1noc(-c2cc(C(C)C)c(O)cc2O)c1-c1ccc(CN2CCOCC2)cc1 [Luminespib] (partner 0.01 µM)
Procedure, shortened: as §1

Everolimus + Dasatinib = compound: CO[C@H]1C[C@@H]2CC[C@@H](C)[C@@](O)(O2)C(=O)C(=O)N2CCCC[C@H]2C(=O)O[C@H]([C@H](C)C[C@@H]2CC[C@@H](OCCO)[C@H](OC)C2)CC(=O)[C@H](C)/C=C(\C)[C@@H](O)[C@@H](OC)C(=O)[C@H](C)C[C@H](C)/C=C/C=C/C=C/1C [Everolimus] + Cc1nc(Nc2ncc(C(=O)Nc3c(C)cccc3Cl)s2)cc(N2CCN(CCO)CC2)n1 [Dasatinib] (partner 0.075 µM)
Procedure, shortened: as §1

Everolimus + Navitoclax = compound: CO[C@H]1C[C@@H]2CC[C@@H](C)[C@@](O)(O2)C(=O)C(=O)N2CCCC[C@H]2C(=O)O[C@H]([C@H](C)C[C@@H]2CC[C@@H](OCCO)[C@H](OC)C2)CC(=O)[C@H](C)/C=C(\C)[C@@H](O)[C@@H](OC)C(=O)[C@H](C)C[C@H](C)/C=C/C=C/C=C/1C [Everolimus] + CC1(C)CCC(c2ccc(Cl)cc2)=C(CN2CCN(c3ccc(C(=O)NS(=O)(=O)c4ccc(N[C@H](CCN5CCOCC5)CSc5ccccc5)c(S(=O)(=O)C(F)(F)F)c4)cc3)CC2)C1 [Navitoclax] (partner 0.5 µM)
Procedure, shortened: as §1

Row | Cell Line | relative viability (Everolimus + Bortezomib; first compound 0.01 µM) | relative viability (Everolimus + Bortezomib; first compound 0.03162 µM) | relative viability (Everolimus + Bortezomib; first compound 0.1 µM) | relative viability (Everolimus + Bortezomib; first compound 0.3162 µM) | relative viability (Everolimus + Bortezomib; first compound 1 µM) | relative viability (Everolimus + Luminespib; first compound 0.01 µM) | relative viability (Everolimus + Luminespib; first compound 0.03162 µM) | relative viability (Everolimus + Luminespib; first compound 0.1 µM) | relative viability (Everolimus + Luminespib; first compound 0.3162 µM) | relative viability (Everolimus + Luminespib; first compound 1 µM) | relative viability (Everolimus + Dasatinib; first compound 0.01 µM) | relative viability (Everolimus + Dasatinib; first compound 0.03162 µM) | relative viability (Everolimus + Dasatinib; first compound 0.1 µM) | relative viability (Everolimus + Dasatinib; first compound 0.3162 µM) | relative viability (Everolimus + Dasatinib; first compound 1 µM) | relative viability (Everolimus + Navitoclax; first compound 0.01 µM) | relative viability (Everolimus + Navitoclax; first compound 0.03162 µM) | relative viability (Everolimus + Navitoclax; first compound 0.1 µM) | relative viability (Everolimus + Navitoclax; first compound 0.3162 µM) | relative viability (Everolimus + Navitoclax; first compound 1 µM)
1 | NCI-H661 | 0.592 | 0.572 | 0.518 | 0.421 | 0.386 | 0.821 | 0.767 | 0.659 | 0.688 | 0.534 | 0.694 | 0.56 | 0.575 | 0.615 | 0.472 |  |  |  |  | 
2 | NCI-H1299 | 1.04 | 1.08 | 1.02 | 1.07 | 1.1 |  |  |  |  |  |  |  |  |  |  | 1.03 | 1.03 | 1.04 | 1.08 | 1.07
3 | NCI-H1395 |  |  |  |  |  | 0.581 | 0.522 | 0.532 | 0.449 | 0.537 | 0.345 | 0.396 | 0.395 | 0.358 | 0.336 | 1.06 | 0.886 | 0.857 | 0.83 | 0.763
4 | NCI-H1563 | 0.665 | 0.724 | 0.762 | 0.715 | 0.704 | 0.54 | 0.479 | 0.548 | 0.501 | 0.496 | 0.434 | 0.419 | 0.462 | 0.464 | 0.437 |  |  |  |  | 
5 | NCI-H1703 | 0.183 | 0.178 | 0.212 | 0.213 | 0.186 |  |  |  |  |  |  |  |  |  |  | 0.443 | 0.453 | 0.553 | 0.457 | 0.671
6 | NCI-H1793 |  |  |  |  |  | 0.151 | 0.149 | 0.139 | 0.152 | 0.113 | 0.23 | 0.256 | 0.209 | 0.214 | 0.162 | 0.285 | 0.165 | 0.247 | 0.258 | 0.184
7 | NCI-H1944 |  |  |  |  |  | 0.436 | 0.447 | 0.374 | 0.429 | 0.345 | 0.179 | 0.193 | 0.157 | 0.184 | 0.157 | 0.697 | 0.668 | 0.555 | 0.628 | 0.571
8 | NCI-H2170 |  |  |  |  |  | 0.291 | 0.175 | 0.229 | 0.316 | 0.198 | 0.366 | 0.292 | 0.312 | 0.302 | 0.262 | 0.235 | 0.22 | 0.202 | 0.184 | 0.236
9 | NCI-H2342 |  |  |  |  |  | 0.668 | 0.496 | 0.426 | 0.46 | 0.553 | 0.274 | 0.323 | 0.277 | 0.262 | 0.319 |  |  |  |  | 
10 | SK-MES-1 |  |  |  |  |  | 0.347 | 0.383 | 0.329 | 0.281 | 0.331 | 0.357 | 0.339 | 0.398 | 0.346 | 0.331 | 0.948 | 0.688 |  | 0.715 | 0.579
11 | SW 900 |  |  |  |  |  | 0.173 | 0.174 | 0.165 | 0.154 | 0.169 | 0.571 | 0.345 | 0.34 | 0.45 | 0.335 |  |  |  |  | 
